Test results: PMC8772772, “Enantioselective Synthesis and Pharmacological Evaluation of Aza-CGP37157–Lipoic Acid Hybrids for the Treatment of Alzheimer’s Disease” (Antioxidants, 2022)
Read-outs that look alike come from different tables or passages of the source.

Experiments:
[1] = parameters: method as in PMID 31693218; details: cited from earlier work; for DPPH Scavenging at 100 µM, %: compound 100 µM; for DPPH Scavenging at 1mM, %: compound 1 mM
[2] = Cytotoxicity in SH-SY5Y cell line (MTT); type: cell-based; details: human; SH-SY5Y, 10, 30 and 100 μM, 24 h, MTT; read-out: CC50
Procedure: SH-SY5Y human neuroblastoma cells were seeded in 96-well clear multi-well plates (6 × 10^4 cells/well). Cells were treated with increasing concentrations of compounds (10, 30 and 100 μM) for 24 h. Thereafter, viability was assessed by the MTT method. Cytotoxic concentration to observe 50% mortality (CC50) values for compounds were interpolated from dose–response curves represented as percentage of cell death vs. concentration of compound, fitted by non-linear regression and data interpolated to value 50.
(§1) The tetrazolium ring of MTT can be cleaved by active dehydrogenases to produce a formazan precipitate. At the end of the experiments, MTT (SigmaAldrich, M2003) stock solution was added to each well to achieve a final concentration of 0.5 mg/mL. Cells were incubated for 2 h. Thereafter, culture media was removed, and DMSO was added to each well to dissolve the formazan precipitate. Finally, absorbance was measured in a microplate reader (SPECTROstar nano, BMG Labtech) at 570 nm. Absorbance obtained in basal conditions was considered as 100% cell viability.
In order to evaluate the potential pharmacological profile of new compounds, we first tested the potential neurotoxicity in the neuroblastoma SHSY5Y cell line. Toxicity was evaluated at increasing concentrations (10, 30 and 100 μM), and toxicity was measured as MTT reduction capability. CC50 values were calculated by non-linear regression of curves % survival vs. concentration (Supplementary Materials Figure S2). CGP37157 and previously studied racemic derivatives rac-3a and (rac,R)-3b were included as reference compounds. As previously described, LA is a non-neurotoxic compound at the concentrations texted.

NRF2 [3] = details: AREc32 cells, cited from earlier work; for CD (concentration required to double the specific luciferase activity): 24 h, Table S1, ref [3] of the supplement; for CD (concentration to double luciferase expression): previous results
primary glial cultures = test system: primary glial cultures; parameters: method as in PMID 31693218; details: primary glial cultures stimulated by LPS; cited from earlier work
[4] = test system: SH-SY5Y neuroblastoma cells; assay: Neuroprotection against rotenone/oligomycin A oxidative stress in SH-SY5Y cells (MTT); type: cell-based, human; details: compound 1 μM 24 h, then compound + R/O (30/10 μM) 24 h; for % Survival: basal = 100, R/O alone 53.4
Procedure: Human neuroblastoma SH-SY5Y cells were plated in 96-well clear multi-well plates (6 × 10^4 cells/well). The potential neuroprotective activity of compounds against OS was evaluated using the rotenone (30 μM) (SigmaAldrich, R8875) and oligomycin A (10 μM) (SigmaAldrich, 75351) (R/O) toxic mixture. Neuroprotection activity against Tau hyperphosphorylation was evaluated by using the okadaic acid (20 nM) model. Cells were pre-incubated with each compound (1 µM) for 24 h, and then treatments were removed and cells were incubated with compounds (1 µM) in the presence the corresponding toxic for additional 24 h. At the end of the experiments, viability was determined by the MTT method. Data were normalized from cell death induced by the toxic stimuli (considered as 100% cell death). Then, the protection percentages were calculated by subtracting from the death induced by toxic stimuli, the death in the presence of the compound.
as §1
Thus, we selected a pre-incubation protocol to evaluate their potential neuroprotective capacity based on the NRF2-induction activity and direct antioxidant effect. Compound pre-incubation would induce the expression of antioxidant enzymes regulated by the phase II antioxidant response, thus promoting cells’ survival. The co-incubation period would also evaluate their capacity to trap free radicals produced by intoxicated mitochondria. SH-SY5Y neuroblastoma cells were treated with compounds (1 µM) during 24 h, and then cells were co-incubated with the corresponding compound at the same concentration and the R/O combination (30/10 µM) for additional 24 h. Melatonin, a well-known antioxidant natural neurohormone, was included as a positive control (1 µM). Previously reported racemic derivatives (rac-3a and (rac,R)-3b) and their precursors ((±)-6, R-6 and S-6) were included for comparative purposes at the same concentration.

BV2 microglial cells = assay: Nitrite production reduction in LPS-stimulated BV2 microglial cells (Griess); type: cell-based, mouse; details: 24 h pretreatment 0.3, 3, 10, 30 μM, then compound + LPS 100 ng/mL 18 h, Griess
Procedure: BV2 microglial cells were seeded at 2 × 10^4 cells/well and treated with compounds at increasing concentrations during 24 h in complete culture media. Then, treatments were removed, and BV2 cells were co-incubated with compounds and LPS (100 ng/mL) (O127:B8, SigmaAldrich, L3129) for additional 18 h in culture media supplemented with 1% FBS. Each plate included non-treated cells as basal nitrite production. Thereafter, nitrite production was determined by using the modified Griess assay. In brief, samples (150 μL) were mixed with DAPSONE (75 μL) (SigmaAldrich, A74807) and NEDA (75 μL) (SigmaAldrich, 33461), and the mixture was incubated at room temperature for 5 min. Light absorption was measured at 550 nm in a microplate reader (SPECTROstar nano, BMG Labtech). Basal nitrite production was referred to as 100% of nitrite production, and all data were normalized to the basal condition. Concentration needed to reduce nitrite production to 50% was calculated from graphical representation of percentage of nitrite production vs. compound concentration, and data were fitted by non-linear regression and interpolated to 50%.
Chronic neuroinflammation is considered a key pathological event in the early stages of AD development. Among immune cells present at CNS, microglia is related to host defense and tissue repair. Nonetheless, chronic neuroinflammation induced by an adverse environment of protein aggregates and exacerbated OS induces a neurotoxic activity of microglia that, finally, leads to neuronal death. […] To this end, we selected the BV2 microglial cell model stimulated by lipopolysaccharide (LPS), a TLR4 agonist that activates the pro-inflammatory response. CGP37157, R- and S-LA; analogue compounds rac-3a and (rac,R)-3b; and precursor derivatives 6 were included with comparative and reference purposes. Microglial BV2 cells were treated with increasing concentrations of the corresponding compound (0.3, 3, 10 and 30 µM) for 24 h following a pre-incubation protocol. Thereafter, treatments were exchanged by a combination of the corresponding compound at desired concentration and LPS (100 ng/mL) during 18 h. At the end of this period, nitrite production was evaluated by the Griess method as an indirect measurement of iNOS enzyme expression and BV2 activation.

[5] = test system: mitochondrial lipoamide dehydrogenase; parameters: method as in PMID 8573188; details: cited from earlier work
NRF2 [6] = assay: NRF2 induction, luciferase expression in AREc32 cell line; type: cell-based; details: AREc32 cells, 0.3, 3, 10 and 30 μM (LA: 0.1–0.6 mM), 24 h; mean ± SEM
Procedure: AREc32 cell line was kindly shared by Professor Roland Wolf (University of Dundee, UK). AREc32 cells were maintained in DMEM/glutamax/high glucose (Gibco, 61965-06, Madrid, Spain), supplemented with 1% penicillin–streptomycin (10,000 units) (SigmaAldrich, P4333, Madrid, Spain), geneticin (0.8 mg/mL) (Gibco, 11811-031) and 10% FBS (Gibco, 10270106), at 37 °C in a 5% CO2 air atmosphere. Cells were used from passage 4 to 18, and mycoplasma contamination was tested every 4 weeks. AREc32 cells were seeded in 96-well white plates (2 × 10^4 cells/well) for 24 h. Thereafter, cells were treated with each compound (0.3, 3, 10 and 30 µM) in duplicate for 24 h. Non-treated cells were included as basal luciferase expression and tert-butylhydroquinone (TBHQ, 10 μM) as positive control in each plate. Luciferase expression was evaluated by using the Luciferase Assay System (Promega, E1483, Madrid, Spain) by luminescence in an Orion II microplate luminometer (Berthold, Germany). Luciferase activity increase was normalized to basal conditions considered as 1. CD values (concentration required to double the luciferase activity) were calculated from dose–response curves of luciferase fold induction vs. compound concentration, fitted by non-linear regression and data interpolated to value 2.
To evaluate the influence of both stereogenic centers in the NRF2 induction capacity of aza-CGP37157-LA hybrids, we used the AREc32 cell line model by analyzing luciferase expression upon treatment with NRF2 inducers. AREc32 cells were exposed to increasing concentrations of tested compounds 7a–d (0.3, […], 10 and 30 μM) during 24 h; thereafter, luciferase expression was evaluated by luminescent assay to calculate the corresponding CD value (concentration to double luciferase expression). […] TBHQ was included as a positive control, and CGP37157, S- and R-LA, rac-3a and (rac,R)-3b and precursors derivatives (R-6 and S-6) were included for comparative purposes. […] Once R-LA is reduced, it might activate the phase II antioxidant response by acting as pro-oxidant over key Cys residues at KEAP1 to generate the corresponding lipoyl-cystinyl disulphide.

SH-SY5Y cell line = test system: SH-SY5Y cell line; parameters: method as in PMID 21989390; details: at the concentrations tested; cited from earlier work

| Compound | DPPH Scavenging at 100 µM, % [1] | DPPH Scavenging at 1mM, % [1] | CC50 at 24 h [2] [µM] | CD (concentration required to double the specific luciferase activity) (NRF2 [3]) [µM] | CD (concentration to double luciferase expression) (NRF2 [3]) [µM] | reduction of nitrite production (primary glial cultures) | % Protection [4] [%] | % Survival [4] [%] | CD (concentration required to double the specific luciferase activity) (NRF2 [6]) [µM] | other results |
| --- | --- | --- | --- | --- | --- | --- | --- | --- | --- | --- |
| O=C1CN(CCOC(=O)CCCC[C@@H]2CCSS2)C(c2ccccc2Cl)c2cc(Cl)ccc2N1 (mixture of isomers) [(rac,R)-3b] | 8.7 ± 5.1 [19] % | 30.7 ± 3.9 [19] % | 76.2 ± 4.8 | 9.8 ± 1.6 | 9.8 ± 1.6 | not active | 59.3 | 72.9 ± 3.5 | – | – |
| O=C1CN(CCOC(=O)CCCCC2CCSS2)C(c2ccccc2Cl)c2cc(Cl)ccc2N1 (racemic) [rac-3a] | 15.1 ± 3.4 [19] % | 37.4 ± 3.8 [19] % | 97.1 ± 2.3 | 14.8 ± 1.6 | 14.8 ± 1.6 | able to reduce nitrite production | 52.1 | 69.0 ± 5.6 | – | – |
| O=C(O)CCCC[C@@H]1CCSS1 [(R) -Lipoic acid, (R)-Lipoic acid, reference compound] | – | – | – | – | – | – | – | – | > 600 | IC50 (BV2 microglial cells): > 30 µM; rate of conversion to dihydrolipoic acid relative to S-LA [5]: 28 times |
| O=C(O)CCCC[C@H]1CCSS1 [(S)-Lipoic acid, reference compound] | – | – | – | – | – | – | – | – | > 600 | IC50 (BV2 microglial cells; Mus musculus, BV-2): > 30 µM |
| O=C(O)CCCCC1CCSS1 (stereo not shown) [LA, lipoic acid] | – | – | – | – | – | – | – | – | – | neurotoxicity (SH-SY5Y cell line): non-neurotoxic |
